According to ChEMBL document CHEMBL1944599, “From libraries to candidate: the discovery of new ultra long-acting dibasic β₂-adrenoceptor agonists” (Bioorg Med Chem Lett, 2012):

Legend:
[1] = molecular target: D(2) dopamine receptor (Homo sapiens, UniProt P14416); assay: Displacement of radiolabeled spiperone from dopamine D2 receptor
[2] = molecular target: T1, Alpha-1D adrenergic receptor (Homo sapiens, UniProt P25100); assay: Displacement of radiolabeled Prazosin from alpha1D adrenoceptor
T1 sequence (P25100 whole entry): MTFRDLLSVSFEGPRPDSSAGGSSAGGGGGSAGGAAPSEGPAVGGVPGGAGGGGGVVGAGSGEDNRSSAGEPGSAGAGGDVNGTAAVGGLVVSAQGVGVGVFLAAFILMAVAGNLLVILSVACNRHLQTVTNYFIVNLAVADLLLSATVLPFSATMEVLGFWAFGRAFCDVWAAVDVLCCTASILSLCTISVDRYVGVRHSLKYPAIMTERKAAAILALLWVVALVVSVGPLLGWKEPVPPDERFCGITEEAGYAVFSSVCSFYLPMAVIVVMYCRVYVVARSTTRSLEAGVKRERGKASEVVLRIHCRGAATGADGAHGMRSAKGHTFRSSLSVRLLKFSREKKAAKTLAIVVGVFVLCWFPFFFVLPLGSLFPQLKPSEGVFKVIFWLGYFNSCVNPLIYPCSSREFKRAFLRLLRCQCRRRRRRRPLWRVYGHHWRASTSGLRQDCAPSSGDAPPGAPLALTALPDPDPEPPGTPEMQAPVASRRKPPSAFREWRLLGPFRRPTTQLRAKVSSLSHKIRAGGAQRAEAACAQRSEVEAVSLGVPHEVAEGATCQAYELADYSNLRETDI

[3] = physchem; settings: 1-octanol/aqueous buffer, pH 7.4
[4] = molecular target: Beta-1 adrenergic receptor (Homo sapiens, UniProt P08588); assay: Displacement of radiolabeled iodocyanopindolol from beta1 adrenoceptor
[5] = molecular target: T2, Beta-2 adrenergic receptor (Homo sapiens, UniProt P07550); assay: Displacement of radiolabeled iodocyanopindolol from recombinant beta2 adrenoceptor
[6] = molecular target: T2, Beta-2 adrenergic receptor; assay: Agonist activity at human beta2 adrenoceptor expressed in H292 cells assessed as increase in cAMP accumulation after 60 mins by spectrophotometry; format: functional, cell-based
[7] = molecular target: Beta-2 adrenergic receptor (Cavia porcellus) (UniProt Q8K4Z4); assay: Agonist activity at beta2 adrenoceptor in guinea pig trachea assessed as reduction in methacholine-induced contraction relative to untreated control; format: functional, tissue-based
[8] = molecular target: Beta-2 adrenergic receptor (Cavia porcellus, UniProt Q8K4Z4); assay: Agonist activity at beta2 adrenoceptor in guinea pig trachea assessed as reduction in methacholine-induced contraction; format: functional, tissue-based
[9] = Clearance in iv dosed rat; settings: in vivo
[10] = Apparent volume of distribution during terminal phase in iv dosed rat; format: ADME, organism-based; settings: in vivo, read-out: Vz
[11] = in vivo; settings: rat, iv
Description: Terminal half life in iv dosed rat

Beta-2 adrenergic receptor (Cavia porcellus), sequence (Q8K4Z4 whole entry, looked up): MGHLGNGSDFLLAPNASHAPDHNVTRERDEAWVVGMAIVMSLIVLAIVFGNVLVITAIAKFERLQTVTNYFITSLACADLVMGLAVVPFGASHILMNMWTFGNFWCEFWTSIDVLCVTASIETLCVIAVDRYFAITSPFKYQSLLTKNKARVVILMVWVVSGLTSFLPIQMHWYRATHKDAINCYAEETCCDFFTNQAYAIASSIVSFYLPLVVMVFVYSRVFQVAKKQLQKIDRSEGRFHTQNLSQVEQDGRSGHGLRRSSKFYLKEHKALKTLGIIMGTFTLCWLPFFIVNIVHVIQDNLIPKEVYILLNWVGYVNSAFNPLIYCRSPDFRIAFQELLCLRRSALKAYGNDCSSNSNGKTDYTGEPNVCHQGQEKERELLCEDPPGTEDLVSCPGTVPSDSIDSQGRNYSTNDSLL
Beta-2 adrenergic receptor (Cavia porcellus, UniProt Q8K4Z4), sequence (Q8K4Z4 whole entry): as the sequence (Q8K4Z4 whole entry, looked up) above
D(2) dopamine receptor, sequence (P14416 whole entry): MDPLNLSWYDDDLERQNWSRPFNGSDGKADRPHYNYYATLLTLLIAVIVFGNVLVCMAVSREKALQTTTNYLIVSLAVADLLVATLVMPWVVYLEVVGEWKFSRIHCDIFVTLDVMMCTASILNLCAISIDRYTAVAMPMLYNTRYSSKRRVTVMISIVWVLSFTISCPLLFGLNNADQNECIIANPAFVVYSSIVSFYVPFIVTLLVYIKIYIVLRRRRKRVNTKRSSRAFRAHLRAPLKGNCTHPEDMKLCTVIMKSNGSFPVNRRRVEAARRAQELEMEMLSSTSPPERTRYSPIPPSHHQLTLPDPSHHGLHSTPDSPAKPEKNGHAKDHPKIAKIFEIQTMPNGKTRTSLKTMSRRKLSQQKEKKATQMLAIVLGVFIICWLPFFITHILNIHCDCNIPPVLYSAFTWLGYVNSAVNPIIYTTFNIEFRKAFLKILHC
T2 sequence (P07550 whole entry): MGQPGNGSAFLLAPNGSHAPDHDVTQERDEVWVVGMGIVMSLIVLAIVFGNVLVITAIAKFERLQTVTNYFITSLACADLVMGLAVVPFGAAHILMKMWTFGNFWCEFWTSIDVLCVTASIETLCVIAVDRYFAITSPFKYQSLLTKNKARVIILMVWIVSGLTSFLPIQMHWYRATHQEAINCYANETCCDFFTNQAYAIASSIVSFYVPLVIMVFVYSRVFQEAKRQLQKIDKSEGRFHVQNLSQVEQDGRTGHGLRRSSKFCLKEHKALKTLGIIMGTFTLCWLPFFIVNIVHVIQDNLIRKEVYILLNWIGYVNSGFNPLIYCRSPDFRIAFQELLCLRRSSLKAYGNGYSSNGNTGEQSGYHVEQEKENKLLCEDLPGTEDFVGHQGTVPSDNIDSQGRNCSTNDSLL
Beta-1 adrenergic receptor, sequence (P08588 whole entry): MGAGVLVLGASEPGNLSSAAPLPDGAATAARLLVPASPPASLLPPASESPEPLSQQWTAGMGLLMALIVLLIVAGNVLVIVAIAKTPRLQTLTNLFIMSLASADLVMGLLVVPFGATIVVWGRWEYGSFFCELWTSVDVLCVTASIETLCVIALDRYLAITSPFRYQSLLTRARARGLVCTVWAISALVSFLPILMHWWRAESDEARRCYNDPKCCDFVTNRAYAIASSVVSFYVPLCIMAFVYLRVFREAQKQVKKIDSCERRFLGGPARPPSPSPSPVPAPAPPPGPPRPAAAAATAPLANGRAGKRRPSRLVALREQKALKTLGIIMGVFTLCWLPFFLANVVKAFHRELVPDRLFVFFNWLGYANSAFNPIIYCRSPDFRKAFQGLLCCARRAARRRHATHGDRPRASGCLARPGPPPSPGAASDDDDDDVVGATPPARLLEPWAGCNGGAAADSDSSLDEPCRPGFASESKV

IC50 [1] [nM]	IC50 [2] [nM]	logD [3]	IC50 [4] [nM]	IC50 [5] [nM]	EC50 [6] [nM]	Intrinsic activity [7]	EC50 [8] [nM]	clearance [9] [mL/min/kg]	Vd [10] [L/kg]	half-life [11] [h]	SMILES
2510	25.1	-0.3	> 794								O=c1[nH]c2c(O)ccc([C@@H](O)CNCCc3ccc(CNCCc4ccccn4)cc3)c2s1
				15.8							O=c1[nH]c2c(O)ccc(CCNCCc3ccc(-c4cccc(CN5Cc6ccccc6C5)c4)cc3)c2s1
2510	31.6	1.2	501	0.2	0.398						CC(CNCc1ccc(CCNC[C@H](O)c2ccc(O)c3[nH]c(=O)sc23)cc1)c1ccccc1 (some centres not stated)
316	158	1.1	20	0.794	0.501						O=c1[nH]c2c(O)ccc([C@@H](O)CNCCc3cccc(CNCCCc4ccccc4)c3)c2s1
				100	158						O=c1[nH]c2c(O)ccc(CCNCCc3ccc(CNCCc4ccccn4)cc3)c2s1
				1260	79.4						O=c1[nH]c2c(O)ccc(CCNCCc3ccc(CNCCc4ccccc4F)cc3)c2s1
1260	31.6		100	25.1	3.16						CCOc1ccccc1CNCc1cccc(CCNC[C@H](O)c2ccc(O)c3[nH]c(=O)sc23)c1
> 10000	398		3160	63.1	2.51						O=c1ccc2c([C@@H](O)CNCCc3cccc(CNCCc4ccccn4)c3)ccc(O)c2[nH]1
> 10000	631	-0.5	794	316	15.8						COCCNCc1ccc(CCNC[C@H](O)c2ccc(O)c3[nH]c(=O)sc23)cc1
631	50.1	1.6	158	0.631	0.251						O=c1[nH]c2c(O)ccc([C@@H](O)CNCCc3cccc(CNCCc4ccccc4Cl)c3)c2s1
398	398	1.1	79.4	0.631	0.316						Cc1cccc2c(CCNCc3cccc(CCNC[C@H](O)c4ccc(O)c5[nH]c(=O)sc45)c3)c[nH]c12
> 794	79.4	0.8	251	0.794	0.316						COc1ccccc1CCNCc1cccc(CCNC[C@H](O)c2ccc(O)c3[nH]c(=O)sc23)c1
1000	251	1.5	200	25.1	3.16						COc1ccccc1CN(C)Cc1cccc(CCNC[C@H](O)c2ccc(O)c3[nH]c(=O)sc23)c1
				2	3.98						C[C@@H](NCc1ccccc1-c1ccc(CCNC[C@H](O)c2ccc(O)c3[nH]c(=O)sc23)cc1)c1ccccc1
126	39.8	2.4	20								CC(Cc1cccc(CNCCc2c(Cl)cccc2Cl)c1)NC[C@H](O)c1ccc(O)c2[nH]c(=O)sc12 (some centres not stated)
2510	100	0.2	1260	126	3.16						COc1ccccc1CNCc1ccc(CCNC[C@H](O)c2ccc(O)c3[nH]c(=O)sc23)cc1
251	158	1.9	10								O=c1[nH]c2c(O)ccc([C@@H](O)CNCCc3cccc(CNCc4ccccc4Cl)c3)c2s1
794	100	0.9	63.1	6.31	1						COc1cccc(CNCc2cccc(CCNC[C@H](O)c3ccc(O)c4[nH]c(=O)sc34)c2)c1
				126	158						O=c1[nH]c2c(O)ccc(CCNCCc3ccc(CN4CC[C@@H](Oc5ccc(Cl)cc5)C4)cc3)c2s1
				501	100						O=c1[nH]c2c(O)ccc(CCNCCc3ccc(CNCCc4c(Cl)cccc4Cl)cc3)c2s1
				3.98	1						O=c1[nH]c2c(O)ccc([C@@H](O)CNCCc3cccc(CN4CCC(c5ccccc5)CC4)c3)c2s1
		-0.3		0.794		0.9	0.251	19	22	15	C[C@@H](NCc1ccccc1-c1ccc(CCNCCc2ccc(O)c3[nH]c(=O)sc23)cc1)c1ccccc1

IC50 [1] [nM]	IC50 [2] [nM]	logD [3]	IC50 [4] [nM]	IC50 [5] [nM]	EC50 [6] [nM]	Intrinsic activity [7]	EC50 [8] [nM]	clearance [9] [mL/min/kg]	Vd [10] [L/kg]	half-life [11] [h]	SMILES
5010	316		79.4								O=c1[nH]c2c(O)ccc([C@@H](O)CNCCc3cccc(CNCc4ccccn4)c3)c2s1
				200							COc1ccccc1CCNCc1ccc(CCNCCc2ccc(O)c3[nH]c(=O)sc23)cc1
79.4	39.8		7.94	6.31	1.26						O=c1[nH]c2c(O)ccc([C@@H](O)CNCCCc3cccc(CNCCc4c(Cl)cccc4Cl)c3)c2s1
631	79.4	0.7	6.31	1	0.631						O=c1[nH]c2c(O)ccc([C@@H](O)CNCCc3cccc(CNCc4ccccc4F)c3)c2s1
794	200	1.6	2	12.6	1.58						O=c1[nH]c2c(O)ccc([C@@H](O)CNCCc3ccccc3CNCCc3ccccc3F)c2s1
				63.1	10						O=c1[nH]c2c(O)ccc([C@@H](O)CNCCc3ccc(-c4cccc(CN5Cc6ccccc6C5)c4)cc3)c2s1
				0.631							O=c1[nH]c2c(O)ccc(CCNCCc3cccc(CNCCc4c(Cl)cccc4Cl)c3)c2s1
2000	12.6	1.1	398	2	0.251						O=c1[nH]c2c(O)ccc([C@@H](O)CNCCc3ccc(CNCCc4ccccc4)cc3)c2s1
1580	200		158	2.51	0.501	0.9	0.316		41		O=c1[nH]c2c(O)ccc([C@@H](O)CNCCc3cccc(CNCCc4ccccn4)c3)c2s1
> 2510	251		63.1	0.501	1						O=c1[nH]c2c(O)ccc([C@@H](O)CNCCc3cccc(CNCCCc4ccccn4)c3)c2s1
631	7.94		316	2	0.316						COc1ccccc1CCNCc1ccc(CCNC[C@H](O)c2ccc(O)c3[nH]c(=O)sc23)cc1
> 7940	501		> 3160	631	31.6						OCc1cc([C@@H](O)CNCCc2ccc(CNCCc3ccccc3)cc2)ccc1O
2000	50.1	1.3	398	2	0.398						O=c1[nH]c2c(O)ccc([C@@H](O)CNCCc3ccc(CNCCc4ccccc4F)cc3)c2s1
> 794	100		316	2	0.251	0.8	0.2	18	29	18	Cc1cccc2c(CCNCc3ccc(CCNC[C@H](O)c4ccc(O)c5[nH]c(=O)sc45)cc3)c[nH]c12
1000	25.1	0.9	63.1								COc1ccccc1CNCCc1cccc(CCNC[C@H](O)c2ccc(O)c3[nH]c(=O)sc23)c1
				794	316						CCN(Cc1ccncc1)Cc1cccc(-c2ccc(CCNCCc3ccc(O)c4[nH]c(=O)sc34)cc2)c1
2000	79.4		1260	251	7.94						COc1ccccc1CNCc1ccc(CCNC[C@@H](O)c2ccc(O)c3[nH]c(=O)sc23)cc1
				12.6	3.98						O=c1[nH]c2c(O)ccc(CCNCCc3cccc(CN[C@H]4C[C@@H]4c4ccccc4)c3)c2s1
				31.6							O=c1[nH]c2c(O)ccc(CCNCCc3cccc(CN4CCC(c5ccccc5)CC4)c3)c2s1
794	158	0.9	10	5.01	0.794						COc1ccc(CNCc2cccc(CCNC[C@H](O)c3ccc(O)c4[nH]c(=O)sc34)c2)cc1
					39.8						O=c1[nH]c2c(O)ccc([C@@H](O)CNCCc3ccc(CN4CCCC4)cc3)c2s1
398	25.1	1.9	200	7.94	2.51						O=c1[nH]c2c(O)ccc([C@@H](O)CNCCOc3cccc(CNCCc4ccccc4F)c3)c2s1
